From patent US12516039B2, “N-linked isoquinoline amides as LRRK2 inhibitors, pharmaceutical compositions, and uses thereof” (Merck Sharp & Dohme LLC, priority 2020, dated 2026)

Molecular target: T1, GST-tagged truncated human mutant G2019S LRRK2 (Homo sapiens, UniProt Q5S007, G2019S)
T1 construct: GST-tagged truncated human mutant G2019S LRRK2; purchased Life Technologies Corporation (Carlsbad, CA)
Assay: LRRK2 G2019S Km ATP LanthaScreen assay
Assay type: biochemical
Details: 134 μM ATP (Km ATP), LRRKtide substrate, mean of several tests, read-out: LRRK2 pIC50 (converted)
Method in brief: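 GST-tagged truncated human LRRK2 G2019S (1.25 nM enzyme solution) was preincubated 15 min with compound, then reacted 90 min at ambient temperature with fluorescein-LRRKtide (400 nM solution) and 134 μM ATP (Km) in Tris pH 8.5. EDTA stop; Tb anti-phospho-LRRKtide TR-FRET (520/495 ratio). IC50 from 4-parameter fits, mean of several runs.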

T1 sequence (Q5S007 970-2527 G2019S limits assumed): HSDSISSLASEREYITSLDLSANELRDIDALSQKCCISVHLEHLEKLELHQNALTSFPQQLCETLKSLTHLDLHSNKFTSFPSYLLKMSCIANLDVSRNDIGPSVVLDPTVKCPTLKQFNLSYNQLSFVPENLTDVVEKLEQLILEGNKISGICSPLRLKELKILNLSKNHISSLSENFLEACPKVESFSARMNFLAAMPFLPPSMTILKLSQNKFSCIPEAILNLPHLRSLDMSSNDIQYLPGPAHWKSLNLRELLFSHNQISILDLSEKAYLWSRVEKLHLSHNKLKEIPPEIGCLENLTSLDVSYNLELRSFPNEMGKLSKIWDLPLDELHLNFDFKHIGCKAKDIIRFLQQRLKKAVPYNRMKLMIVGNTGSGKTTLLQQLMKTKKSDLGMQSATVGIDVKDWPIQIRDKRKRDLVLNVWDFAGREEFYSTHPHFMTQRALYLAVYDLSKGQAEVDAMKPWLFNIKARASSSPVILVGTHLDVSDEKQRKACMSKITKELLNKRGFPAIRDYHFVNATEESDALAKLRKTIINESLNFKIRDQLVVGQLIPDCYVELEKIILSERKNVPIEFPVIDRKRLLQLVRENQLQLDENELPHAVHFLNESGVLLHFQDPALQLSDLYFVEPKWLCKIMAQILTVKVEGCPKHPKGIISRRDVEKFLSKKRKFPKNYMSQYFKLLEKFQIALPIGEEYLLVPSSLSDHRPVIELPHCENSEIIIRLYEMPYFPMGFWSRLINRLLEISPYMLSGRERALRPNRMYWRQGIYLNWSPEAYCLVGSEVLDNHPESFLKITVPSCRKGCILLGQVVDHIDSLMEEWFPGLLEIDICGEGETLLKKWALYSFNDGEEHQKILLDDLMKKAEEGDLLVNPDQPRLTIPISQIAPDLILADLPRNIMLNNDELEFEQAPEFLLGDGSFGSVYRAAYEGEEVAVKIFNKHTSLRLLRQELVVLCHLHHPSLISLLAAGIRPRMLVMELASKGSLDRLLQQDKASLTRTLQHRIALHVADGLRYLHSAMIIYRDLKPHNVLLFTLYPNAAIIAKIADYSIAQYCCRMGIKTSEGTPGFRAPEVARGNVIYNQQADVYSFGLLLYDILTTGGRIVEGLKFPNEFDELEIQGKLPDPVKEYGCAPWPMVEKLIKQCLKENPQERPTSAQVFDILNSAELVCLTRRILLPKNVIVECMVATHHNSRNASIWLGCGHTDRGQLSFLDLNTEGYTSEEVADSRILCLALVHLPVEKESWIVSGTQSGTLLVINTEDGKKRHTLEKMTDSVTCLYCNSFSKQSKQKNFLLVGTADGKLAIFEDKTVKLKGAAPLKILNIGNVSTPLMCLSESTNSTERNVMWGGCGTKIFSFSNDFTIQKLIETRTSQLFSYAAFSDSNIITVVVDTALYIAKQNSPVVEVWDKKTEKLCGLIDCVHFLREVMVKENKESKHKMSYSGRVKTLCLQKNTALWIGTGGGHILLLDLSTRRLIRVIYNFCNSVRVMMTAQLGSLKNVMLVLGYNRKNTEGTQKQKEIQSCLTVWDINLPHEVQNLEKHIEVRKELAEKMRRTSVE

| Compound | IC50 [nM] |
| --- | --- |
| Cn1ncc(C2CC2C(=O)Nc2cc3cc(N4CCN(C5(C)CCOC5)CC4)c(Cl)cc3cn2)c1C(F)(F)F (single isomer, unassigned) [Ex-10.28, (1R,2R or 1S,2S)-N-[7-chloro-6-[4-((R or S)-3-methyltetrahydrofuran-3-yl)piperazin-4-ium-1-yl]-3-isoquinolyl]-2-[1-methyl-5-(trifluoromethyl)pyrazol-4-yl]cyclopropanecarboxamide] | 56.2 |
| CC1(N2CCN(c3cc4cc(NC(=O)C5CC5c5ccco5)ncc4cc3Cl)CC2)COCC1O (single isomer, unassigned) [Ex-10.29, (1R,2R or 1S,2S)-N-[7-chloro-6-[4-((3R,4R or 3S,4S)-4-hydroxy-3-methyl-tetrahydrofuran-3-yl)piperazin-1-yl]-3-isoquinolyl]-2-(2-furyl)cyclopropanecarboxamide] | 0.275 |
| CC1(N2CCN(c3cc4cc(NC(=O)C5CC5c5ccco5)ncc4cc3Cl)CC2)COCC1O (single isomer, unassigned) [Ex-10.30, (1R,2R or 1S,2S)-N-[7-chloro-6-[4-((3R,4R or 3S,4S)-4-hydroxy-3-methyl-tetrahydrofuran-3-yl)piperazin-1-yl]-3-isoquinolyl]-2-(2-furyl)cyclopropanecarboxamide] | 0.0813 |
| CC1(N2CCN(c3cc4cc(NC(=O)C5CC5C5CCOCC5)ncc4cc3Cl)CC2)COCC1O (single isomer, unassigned) [Ex-10.31, (1R,2R or 1S,2S)-N-[7-chloro-6-[4-((3R,4R or 3S,4S)-4-hydroxy-3-methyl-tetrahydrofuran-3-yl)piperazin-1-yl]-3-isoquinolyl]-2-tetrahydropyran-4-yl-cyclopropanecarboxamide] | 0.0813 |
| Cc1cc2cnc(NC(=O)C3CC3c3cnn(C)c3C(F)(F)F)cc2cc1N1CCN(C2(C)CCOC2)CC1 (single isomer, unassigned) [Ex-10.33, (1R,2R or 1S,2S)-N-[7-methyl-6-[4-((R or S)-3-methyltetrahydrofuran-3-yl)piperazin-1-yl]-3-isoquinolyl]-2-[1-methyl-5-(trifluoromethyl)pyrazol-4-yl]cyclopropanecarboxamide] | 4.79 |
| Cc1cc2cnc(NC(=O)C3CC3c3cnn(C)c3C(F)(F)F)cc2cc1N1CCN(C2(C)CCOC2)CC1 (single isomer, unassigned) [Ex-10.34, (1R,2R or 1S,2S)-N-[7-methyl-6-[4-((R or S)-3-methyltetrahydrofuran-3-yl)piperazin-1-yl]-3-isoquinolyl]-2-[1-methyl-5-(trifluoromethyl)pyrazol-4-yl]cyclopropanecarboxamide] | 69.2 |
| Cc1cc2cnc(NC(=O)C3CC3c3cnn(C)c3C(F)(F)F)cc2cc1N1CCN(C2(C)CCOC2)CC1 (single isomer, unassigned) [Ex-10.35, (1R,2R or 1S,2S)-N-[7-methyl-6-[4-((R or S)-3-methyltetrahydrofuran-3-yl)piperazin-1-yl]-3-isoquinolyl]-2-[1-methyl-5-(trifluoromethyl)pyrazol-4-yl]cyclopropanecarboxamide] | 1.7 |
| Cc1cc2cnc(NC(=O)C3CC3c3cnn(C)c3C(F)(F)F)cc2cc1N1CCN(C2(C)CCOC2)CC1 (single isomer, unassigned) [Ex-10.36, (1R,2R or 1S,2S)-N-[7-methyl-6-[4-((R or S)-3-methyltetrahydrofuran-3-yl)piperazin-1-yl]-3-isoquinolyl]-2-[1-methyl-5-(trifluoromethyl)pyrazol-4-yl]cyclopropanecarboxamide] | 107 |
| CCC1C(C(=O)Nc2cc3cc(N4CCN(C5(C)CCOC5)CC4)c(C)cc3cn2)C1c1cnn(C)c1 (single isomer, unassigned) [Ex-10.37, (1R,2R,3R, 1R,2S,3R, 1S,2R,3S, or 1S,2S,3S)-2-ethyl-N-[7-methyl-6-[4-((R or S)-3-methyltetrahydrofuran-3-yl)piperazin-4-ium-1-yl]-3-isoquinolyl]-3-(1-methylpyrazol-4-yl)cyclopropanecarboxamide] | 0.0813 |
| CCC1C(C(=O)Nc2cc3cc(N4CCN(C5(C)CCOC5)CC4)c(C)cc3cn2)C1c1cnn(C)c1 (single isomer, unassigned) [Ex-10.38, (1R,2R,3R, 1R,2S,3R, 1S,2R,3S, or 1S,2S,3S)-2-ethyl-N-[7-methyl-6-[4-((R or S)-3-methyltetrahydrofuran-3-yl)piperazin-4-ium-1-yl]-3-isoquinolyl]-3-(1-methylpyrazol-4-yl)cyclopropanecarboxamide] | 0.759 |
| CC1(N2CCN(c3cc4cc(NC(=O)C5CCC5C#N)ncc4cc3Cl)CC2)COCC1O (single isomer, unassigned) [Ex-10.39, (1R,2R of 1S,2S)-N-[7-chloro-6-[4-((3R,4R or 3S,4S)-4-hydroxy-3-methyl-tetrahydrofuran-3-yl)piperazin-1-yl]-3-isoquinolyl]-2-cyano-cyclobutanecarboxamide] | 0.0813 |
| Cc1cc2cnc(NC(=O)C3CCOC(C)(C)C3)cc2cc1N1CCN(C2(C)CCOC2)CC1 (single isomer, unassigned) [Ex-10.41, (4R or 4S)-2,2-dimethyl-N-[7-methyl-6-[4-((R or S)-3-methyltetrahydrofuran-3-yl)piperazin-1-yl]-3-isoquinolyl]tetrahydropyran-4-carboxamide] | 0.309 |
| Cc1cc2cnc(NC(=O)C3CCOC(C)(C)C3)cc2cc1N1CCN(C2(C)CCOC2)CC1 (single isomer, unassigned) [Ex-10.42, (4R or 4S)-2,2-dimethyl-N-[7-methyl-6-[4-((R or S)-3-methyltetrahydrofuran-3-yl)piperazin-1-yl]-3-isoquinolyl]tetrahydropyran-4-carboxamide] | 0.525 |
| Cc1cc2cnc(NC(=O)C3CCOC(C)(C)C3)cc2cc1N1CCN(C2(C)CCOC2)CC1 (single isomer, unassigned) [Ex-10.43, (4R or 4S)-2,2-dimethyl-N-[7-methyl-6-[4-((R or S)-3-methyltetrahydrofuran-3-yl)piperazin-1-yl]-3-isoquinolyl]tetrahydropyran-4-carboxamide] | 19.5 |
| Cc1cc2cnc(NC(=O)C3CCOC(C)(C)C3)cc2cc1N1CCN(C2(C)CCOC2)CC1 (single isomer, unassigned) [Ex-10.44, (4R or 4S)-2,2-dimethyl-N-[7-methyl-6-[4-((R or S)-3-methyltetrahydrofuran-3-yl)piperazin-1-yl]-3-isoquinolyl]tetrahydropyran-4-carboxamide] | 209 |
| Cc1cc2cnc(NC(=O)C3C4CCOCC43)cc2cc1N1CCN(C2(C)CCOC2)CC1 (single isomer, unassigned) [Ex-10.45, (1S,6R,7R, 1R,6S,7R, or 1R, 6S,7S, or 1S,6S,7S)-N-(7-methyl-6-(4-((R or S)-3-methyltetrahydrofuran-3-yl)piperazin-1-yl)isoquinolin-3-yl)-3-oxabicyclo[4.1.0]heptane-7-carboxamide] | 0.145 |
| Cc1cc2cnc(NC(=O)C3C4CCOCC43)cc2cc1N1CCN(C2(C)CCOC2)CC1 (single isomer, unassigned) [Ex-10.46, (1S,6R,7R, 1R,6S,7R, or 1R, 6S,7S, or 1S,6S,7S)-N-(7-methyl-6-(4-((R or S)-3-methyltetrahydrofuran-3-yl)piperazin-1-yl)isoquinolin-3-yl)-3-oxabicyclo[4.1.0]heptane-7-carboxamide] | 0.457 |
| Cc1cc2cnc(NC(=O)C3C4CCOCC43)cc2cc1N1CCN(C2(C)CCOC2)CC1 (single isomer, unassigned) [Ex-10.47, (1S,6R,7R, 1R,6S,7R, or 1R, 6S,7S, or 1S,6S,7S)-N-(7-methyl-6-(4-((R or S)-3-methyltetrahydrofuran-3-yl)piperazin-1-yl)isoquinolin-3-yl)-3-oxabicyclo[4.1.0]heptane-7-carboxamide] | 10.2 |
| Cc1cc2cnc(NC(=O)C3C4CCOCC43)cc2cc1N1CCN(C2(C)CCOC2)CC1 (single isomer, unassigned) [Ex-10.48, (1S,6R,7R, 1R,6S,7R, or 1R, 6S,7S, or 1S,6S,7S)-N-(7-methyl-6-(4-((R or S)-3-methyltetrahydrofuran-3-yl)piperazin-1-yl)isoquinolin-3-yl)-3-oxabicyclo[4.1.0]heptane-7-carboxamide] | 17.4 |
| CCC1C(C(=O)Nc2cc3cc(N4CCN(C5(C)COCC5F)CC4)c(Cl)cc3cn2)C1c1ccn(C)n1 (single isomer, unassigned) [Ex-10.49, (1R,2R,3R, 1R,2S,3R, or 1S,2R,3S, or 1S,2S,3S)-N-[7-chloro-6-[4-((3R,4R or 3S,4S)-4-fluoro-3-methyl-tetrahydrofuran-3-yl)piperazin-1-yl]-3-isoquinolyl]-2-ethyl-3-(1-methylpyrazol-3-yl)cyclopropanecarboxamide] | 0.0813 |
| CCC1C(C(=O)Nc2cc3cc(N4CCN(C5(C)COCC5F)CC4)c(Cl)cc3cn2)C1c1ccn(C)n1 (single isomer, unassigned) [Ex-10.50, (1R,2R,3R, 1R,2S,3R, or 1S,2R,3S, or 1S,2S,3S)-N-[7-chloro-6-[4-((3R,4R or 3S,4S)-4-fluoro-3-methyl-tetrahydrofuran-3-yl)piperazin-1-yl]-3-isoquinolyl]-2-ethyl-3-(1-methylpyrazol-3-yl)cyclopropanecarboxamide] | 0.0813 |
| CCC1C(C(=O)Nc2cc3cc(N4CCN(C5(C)COCC5F)CC4)c(Cl)cc3cn2)C1c1ccn(C)n1 (single isomer, unassigned) [Ex-10.51, (1R,2R,3R, 1R,2S,3R, or 1S,2R,3S, or 1S,2S,3S)-N-[7-chloro-6-[4-((3R,4R or 3S,4S)-4-fluoro-3-methyl-tetrahydrofuran-3-yl)piperazin-1-yl]-3-isoquinolyl]-2-ethyl-3-(1-methylpyrazol-3-yl)cyclopropanecarboxamide] | 0.0813 |
